Among the data in patent US10870652B2, “Compounds and methods for modulating bruton's tyrosine kinase” (CORVUS PHARMACEUTICALS, INC., priority 2016, dated 2020) are IC50 values, retold here.

Structures are written as SMILES.

Assay type in all cases: biochemical
For one assay, the target named is T1, RLK (Homo sapiens, UniProt P42681).
T1 sequence (P42681 1-527): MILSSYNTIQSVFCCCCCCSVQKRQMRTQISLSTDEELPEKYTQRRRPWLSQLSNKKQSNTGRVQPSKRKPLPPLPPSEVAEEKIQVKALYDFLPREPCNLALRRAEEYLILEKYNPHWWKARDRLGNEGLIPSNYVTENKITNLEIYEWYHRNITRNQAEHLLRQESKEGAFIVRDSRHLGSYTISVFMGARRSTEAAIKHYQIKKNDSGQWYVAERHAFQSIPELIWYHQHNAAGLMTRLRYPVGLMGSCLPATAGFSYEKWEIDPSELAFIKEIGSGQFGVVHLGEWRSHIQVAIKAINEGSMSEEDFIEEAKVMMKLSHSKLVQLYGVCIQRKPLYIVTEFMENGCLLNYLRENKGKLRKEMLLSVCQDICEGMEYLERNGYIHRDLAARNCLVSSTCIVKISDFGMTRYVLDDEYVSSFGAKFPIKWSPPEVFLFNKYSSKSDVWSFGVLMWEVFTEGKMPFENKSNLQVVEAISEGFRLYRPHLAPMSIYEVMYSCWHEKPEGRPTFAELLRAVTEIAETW
Kind of assay: RLK IC50 kinase inhibition assay.

The next assay concerns the target T2, JAK3 (Homo sapiens, UniProt P52333).
T2 sequence (P52333 1-1124): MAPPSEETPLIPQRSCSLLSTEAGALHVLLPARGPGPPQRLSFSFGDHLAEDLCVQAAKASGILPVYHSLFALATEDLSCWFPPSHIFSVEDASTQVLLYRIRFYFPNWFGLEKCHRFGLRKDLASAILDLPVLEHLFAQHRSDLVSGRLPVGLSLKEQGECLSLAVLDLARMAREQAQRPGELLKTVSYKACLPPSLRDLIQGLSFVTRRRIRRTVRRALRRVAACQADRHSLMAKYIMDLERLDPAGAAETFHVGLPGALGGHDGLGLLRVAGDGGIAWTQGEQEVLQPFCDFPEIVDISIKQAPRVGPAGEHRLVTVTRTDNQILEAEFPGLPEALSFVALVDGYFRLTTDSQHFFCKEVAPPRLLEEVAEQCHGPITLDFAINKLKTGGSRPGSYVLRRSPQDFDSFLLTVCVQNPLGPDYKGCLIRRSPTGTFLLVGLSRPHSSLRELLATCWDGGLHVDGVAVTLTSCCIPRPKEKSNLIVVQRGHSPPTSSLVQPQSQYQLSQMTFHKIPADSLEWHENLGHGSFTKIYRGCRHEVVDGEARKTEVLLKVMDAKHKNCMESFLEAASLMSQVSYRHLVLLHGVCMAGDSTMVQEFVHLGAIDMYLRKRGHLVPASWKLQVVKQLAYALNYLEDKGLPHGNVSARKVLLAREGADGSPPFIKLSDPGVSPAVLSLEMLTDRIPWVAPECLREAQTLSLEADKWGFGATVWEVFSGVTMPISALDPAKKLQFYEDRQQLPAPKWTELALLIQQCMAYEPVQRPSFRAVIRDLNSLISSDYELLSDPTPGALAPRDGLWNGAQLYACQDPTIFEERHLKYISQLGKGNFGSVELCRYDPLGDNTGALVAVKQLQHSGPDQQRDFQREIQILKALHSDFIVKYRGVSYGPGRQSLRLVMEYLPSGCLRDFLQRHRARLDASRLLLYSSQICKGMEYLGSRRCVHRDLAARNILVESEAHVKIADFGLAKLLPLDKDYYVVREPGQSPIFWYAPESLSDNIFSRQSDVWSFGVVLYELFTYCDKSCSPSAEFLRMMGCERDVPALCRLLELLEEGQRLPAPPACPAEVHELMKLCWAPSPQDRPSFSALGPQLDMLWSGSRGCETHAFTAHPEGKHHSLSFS
The assay can be described thus: JAK3 IC50 kinase inhibition assay.

In the next assay the target is T3, ITK (Homo sapiens, UniProt Q08881).
T3 sequence (Q08881 1-620): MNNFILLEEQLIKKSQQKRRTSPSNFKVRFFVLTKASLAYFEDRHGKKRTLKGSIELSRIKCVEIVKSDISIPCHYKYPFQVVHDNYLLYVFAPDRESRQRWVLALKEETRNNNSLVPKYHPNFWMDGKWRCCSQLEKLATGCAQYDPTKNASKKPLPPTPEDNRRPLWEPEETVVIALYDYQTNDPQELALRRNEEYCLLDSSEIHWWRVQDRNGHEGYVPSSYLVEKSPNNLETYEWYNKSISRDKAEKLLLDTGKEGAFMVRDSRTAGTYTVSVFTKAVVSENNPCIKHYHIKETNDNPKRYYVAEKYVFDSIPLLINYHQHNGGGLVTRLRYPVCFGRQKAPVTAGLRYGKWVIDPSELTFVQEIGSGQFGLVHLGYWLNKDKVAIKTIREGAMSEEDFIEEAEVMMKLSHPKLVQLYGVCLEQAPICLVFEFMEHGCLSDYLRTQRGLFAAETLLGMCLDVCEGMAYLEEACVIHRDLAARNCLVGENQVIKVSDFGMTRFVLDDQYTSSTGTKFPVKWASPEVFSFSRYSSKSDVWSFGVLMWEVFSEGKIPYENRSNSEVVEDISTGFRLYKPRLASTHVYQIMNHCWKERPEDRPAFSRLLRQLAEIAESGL
The assay can be described thus: ITK IC50 kinase inhibition assay.

The next assay concerns the target BTK (Homo sapiens, UniProt Q06187). Kind of assay: BTK IC50 kinase inhibition assay.
Another assay deals with T4, TXK (Homo sapiens, UniProt P42681).
T4 sequence (P42681 1-527): T1 sequence (P42681 1-527)
Kind of assay: TXK IC50 kinase inhibition assay.

Chain of BTK (Q06187 whole entry): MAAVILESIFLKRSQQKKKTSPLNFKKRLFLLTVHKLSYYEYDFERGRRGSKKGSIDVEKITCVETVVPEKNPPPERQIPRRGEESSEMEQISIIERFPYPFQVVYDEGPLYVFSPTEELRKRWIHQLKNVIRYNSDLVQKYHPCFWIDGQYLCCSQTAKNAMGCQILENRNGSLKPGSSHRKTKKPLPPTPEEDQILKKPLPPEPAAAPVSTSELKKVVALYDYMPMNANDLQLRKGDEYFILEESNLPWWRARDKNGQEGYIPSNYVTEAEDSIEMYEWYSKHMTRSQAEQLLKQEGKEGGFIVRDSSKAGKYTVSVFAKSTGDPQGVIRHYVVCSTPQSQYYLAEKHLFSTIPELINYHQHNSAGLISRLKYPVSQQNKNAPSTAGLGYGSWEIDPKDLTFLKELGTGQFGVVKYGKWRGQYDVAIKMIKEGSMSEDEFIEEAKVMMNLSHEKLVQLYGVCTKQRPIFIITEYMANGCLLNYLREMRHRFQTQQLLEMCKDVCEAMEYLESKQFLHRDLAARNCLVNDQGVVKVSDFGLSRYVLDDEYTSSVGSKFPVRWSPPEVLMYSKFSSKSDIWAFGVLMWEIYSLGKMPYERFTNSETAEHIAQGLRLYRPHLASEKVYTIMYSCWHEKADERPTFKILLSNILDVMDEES

Consider `C=CC(=O)N1CCC[C@@H](n2nc(-c3ccc(Oc4ccccc4)cc3)c3cnc(N)nc32)C1` [Compound A11], for which the IC50 against RLK was 100 to 500 nM; against JAK3, more than 500 nM; against ITK it was more than 500 nM; against BTK, less than 100 nM.
`CC#CC(=O)N1CC[C@@H](Cn2nc(-c3ccc(Oc4ccccc4)cc3)c3cncnc32)C1` [Compound A63, (R)-1-(3-((3-(4-phenoxyphenyl)-1H-pyrazolo[3,4-d]pyrimidin-1-yl)methyl)pyrrolidin-1-yl)but-2-yn-1-one]: the IC50 on TXK is more than 500 nM; at JAK3, more than 500 nM; against ITK it was more than 500 nM; against BTK, 100 to 500 nM.
For the compound `C=CC(=O)N[C@H]1C[C@H](n2nc(-c3ccc(Oc4ccccc4)cc3)c3cncnc32)C1` [Compound A55, N-((1r,3r)-3-(3-(4-phenoxyphenyl)-1H-pyrazolo[3,4-d]pyrimidin-1-yl)cyclobutyl)acrylamide], the IC50 against TXK is more than 500 nM; on JAK3, more than 500 nM; at ITK, more than 500 nM; on BTK it was 100 to 500 nM.
`C=CC(=O)N1CCC[C@@H](n2nc(-c3ccc(Oc4ccccc4F)cc3)c3cncnc32)C1` [Compound A40, (R)-1-(3-(3-(4-(2-fluorophenoxy)phenyl)-1H-pyrazolo[3,4-d]pyrimidin-1-yl)piperidin-1-yl)prop-2-en-1-one]: the IC50 was less than 100 nM on TXK, more than 500 nM against JAK3, more than 500 nM against ITK and less than 100 nM against BTK.
For the compound `CC#CC(=O)N1CC2(CC(n3nc(-c4ccc(Oc5ccccc5)cc4)c4cncnc43)C2)C1` [Compound A60, 1-(6-(3-(4-phenoxyphenyl)-1H-pyrazolo[3,4-d]pyrimidin-1-yl)-2-azaspiro[3.3]heptan-2-yl)but-2-yn-1-one], the IC50 against TXK is less than 100 nM; against JAK3, more than 500 nM; against ITK, more than 500 nM; on BTK it was less than 100 nM.
In the case of `C=CC(=O)N1CCC[C@H]1Cn1nc(-c2ccc(Oc3cccc(C)c3)cc2)c2cncnc21` [Compound A48, (S)-1-(2-((3-(4-(m-tolyloxy)phenyl)-1H-pyrazolo[3,4-d]pyrimidin-1-yl)methyl)pyrrolidin-1-yl)prop-2-en-1-one], the IC50 at TXK was less than 100 nM; against JAK3, more than 500 nM; against ITK it was more than 500 nM; on BTK, less than 100 nM.
As for `C=CC(=O)N1CC[C@@H](n2nc(-c3ccc(Oc4ccccc4)cc3F)c3cncnc32)C1` [Compound A17, (R)-1-(3-(3-(2-fluoro-4-phenoxyphenyl)-1H-pyrazolo[3,4-d]pyrimidin-1-yl)pyrrolidin-1-yl)prop-2-en-1-one], the IC50 at TXK is less than 100 nM; at JAK3, more than 500 nM; against ITK it was more than 500 nM; at BTK, less than 100 nM.
`CC#CC(=O)N1CCC2(CC1)CC(n1nc(-c3ccc(Oc4ccccc4)cc3)c3cncnc31)C2` [Compound A68, 1-(2-(3-(4-phenoxyphenyl)-1H-pyrazolo[3,4-d]pyrimidin-1-yl)-7-azaspiro[3.5]nonan-7-yl)but-2-yn-1-one]: the IC50 on TXK, against JAK3, on ITK and at BTK was more than 500 nM throughout.
In the case of `CC#CC(=O)N1CCC[C@@H](n2nc(-c3ccc(Oc4ccccc4)cc3)c3cncnc32)C1` [Compound A16, (R)-1-(3-(3-(4-phenoxyphenyl)-1H-pyrazolo[3,4-d]pyrimidin-1-yl)piperidin-1-yl)but-2-yn-1-one], the IC50 against TXK, against JAK3, on ITK and at BTK was more than 500 nM each time.
Regarding `C=CC(=O)N1CCC[C@H]1Cn1nc(-c2ccc(Oc3ccccc3)cc2)c2cncc(C#N)c21` [Compound A74, (S)-1-((1-Acryloylpyrrolidin-2-yl)methyl)-3-(4-phenoxyphenyl)-1H-pyrazolo[4,3-c]pyridine-7-carbonitrile], the IC50 against TXK was more than 500 nM; against JAK3, more than 500 nM; against ITK it was more than 500 nM; against BTK, less than 100 nM.
As to `CC#CC(=O)N1CCC(Cn2nc(-c3ccc(Oc4ccccc4)cc3)c3cncnc32)CC1` [Compound A57, 1-(4-((3-(4-phenoxyphenyl)-1H-pyrazolo[3,4-d]pyrimidin-1-yl)methyl)piperidin-1-yl)but-2-yn-1-one], the IC50 at TXK, against JAK3, on ITK and on BTK was more than 500 nM in each case.
On to `CC#CC(=O)N1CC[C@@H](c2nc(-c3ccc(Oc4ccccc4)cc3)c3cnccn23)C1` [Compound A32, (R)-1-(3-(1-(4-phenoxyphenyl)imidazo[1,5-a]pyrazin-3-yl)pyrrolidin-1-yl)but-2-yn-1-one], for which the IC50 on TXK was 100 to 500 nM; at JAK3 it was more than 500 nM; at ITK, more than 500 nM; at BTK, less than 100 nM.

What is called IC50 is the concentration that inhibits the measured activity by half. Higher therefore signals weaker potency in that assay.
